Results from US4446133A, “1-Phenyl-4-carbamoyl piperazine compounds, process for preparation thereof and utilizations thereof” (Misuitoatsu Chemicals, Inc., priority 1980, dated 1984).

Columns and labels:
adjuvant arthritis = assay: Test 2: Adjuvant Arthritis Test; assay type: in vivo, SD male rats; details: 5 mg/kg subcutaneous, 9 times, left hind leg, * P<0.05, ** P<0.01; for Swelling Ratio (average value ± standard variation), 15 days: control 84.4 ± 9.0; for Swelling Ratio (average value ± standard variation), 18 days: control 103.2 ± 9.7; for Swelling Ratio (average value ± standard variation), 21 days: control 107.5 ± 13.3
Sarcoma 180 [1] = assay: Test 4: Test of Antitumor Effect to Sarcoma 180 by Oral Administration; assay type: in vivo, ICR female mice; details: for D: average diameter of tumor, 2 weeks / D: average diameter of tumor, 4 weeks / D: average diameter of tumor, 6 weeks / D: average diameter of tumor, 8 weeks / D: average diameter of tumor, 10 weeks: 100 mg/kg oral once a day, 10 days; for D: average diameter of tumor, 2 weeks: control 10.6; for D: average diameter of tumor, 4 weeks: control 15.2; for D: average diameter of tumor, 6 weeks: control 22.4; for D: average diameter of tumor, 8 weeks: control 31.5; for D: average diameter of tumor, 10 weeks: control 37.6; for N: number of living mice, 0 weeks / N: number of living mice, 2 weeks / N: number of living mice, 4 weeks / N: number of living mice, 6 weeks / N: number of living mice, 8 weeks / N: number of living mice, 10 weeks: 100 mg/kg oral, of 6 mice; for N: number of living mice, 0 weeks / N: number of living mice, 2 weeks / N: number of living mice, 4 weeks / N: number of living mice, 6 weeks: control 6; for N: number of living mice, 8 weeks: control 5; for N: number of living mice, 10 weeks: control 1
Experimental: To the control group, a physiological saline solution was similarly administered. The dose of the compound was 100 mg per Kg of the body weight. The diameter D (mm) of the tumor was measured, and the average value and the number N of the living mice were determined to obtain results shown in Table 4.

Sarcoma 180 [2] = assay: Test 5: Test of Antitumor Effect to Sarcoma 180 by Subcutaneous Administration; assay type: in vivo, ICR female mice; details: 20 mg/kg subcutaneous; for D: average diameter of tumor, 2 weeks: control 10.8; for D: average diameter of tumor, 4 weeks: control 16.6; for D: average diameter of tumor, 6 weeks: control 20.3; for D: average diameter of tumor, 8 weeks: control 31.3; for D: average diameter of tumor, 10 weeks: control 40.5; for N: number of living mice, 0 weeks / N: number of living mice, 2 weeks / N: number of living mice, 4 weeks / N: number of living mice, 6 weeks / N: number of living mice, 8 weeks / N: number of living mice, 10 weeks: of 6 mice; for N: number of living mice, 0 weeks / N: number of living mice, 2 weeks / N: number of living mice, 4 weeks / N: number of living mice, 6 weeks: control 6; for N: number of living mice, 8 weeks: control 4; for N: number of living mice, 10 weeks: control 1
Experimental: To the control group, a physiological saline solution was similarly administered. […] The diameter D (mm) of the tumor was measured, and the average value and the number N of the living mice were determined to obtain results shown in Table 4.

Compound	Swelling Ratio (average value ± standard variation), 15 days (adjuvant arthritis) [%]	Swelling Ratio (average value ± standard variation), 18 days (adjuvant arthritis) [%]	Swelling Ratio (average value ± standard variation), 21 days (adjuvant arthritis) [%]	D: average diameter of tumor, 2 weeks (Sarcoma 180 [1]) [mm]	D: average diameter of tumor, 4 weeks (Sarcoma 180 [1]) [mm]	D: average diameter of tumor, 6 weeks (Sarcoma 180 [1]) [mm]	D: average diameter of tumor, 8 weeks (Sarcoma 180 [1]) [mm]	D: average diameter of tumor, 10 weeks (Sarcoma 180 [1]) [mm]	N: number of living mice, 0 weeks (Sarcoma 180 [1])	N: number of living mice, 2 weeks (Sarcoma 180 [1])	N: number of living mice, 4 weeks (Sarcoma 180 [1])	N: number of living mice, 6 weeks (Sarcoma 180 [1])	N: number of living mice, 8 weeks (Sarcoma 180 [1])	N: number of living mice, 10 weeks (Sarcoma 180 [1])	D: average diameter of tumor, 2 weeks (Sarcoma 180 [2]) [mm]	D: average diameter of tumor, 4 weeks (Sarcoma 180 [2]) [mm]	D: average diameter of tumor, 6 weeks (Sarcoma 180 [2]) [mm]	D: average diameter of tumor, 8 weeks (Sarcoma 180 [2]) [mm]	D: average diameter of tumor, 10 weeks (Sarcoma 180 [2]) [mm]	N: number of living mice, 0 weeks (Sarcoma 180 [2])	further results
CCN(CC)C(=O)N1CCN(c2ccccc2)CC1 [drawing 17]	47.0 ± 8.0	52.4 ± 9.2	59.8 ± 12.1	–	–	–	–	–	–	–	–	–	–	–	–	–	–	–	–	–	–
CCN(CC)C(=O)N1CCN(c2ccc(Cl)cc2)CC1 [drawing 18]	57.9 ± 11.1	55.7 ± 9.7	62.8 ± 10.9	–	–	–	–	–	–	–	–	–	–	–	–	–	–	–	–	–	–
CCN(CC)C(=O)N1CCN(c2ccc(OC)cc2)CC1 [drawing 19]	60.1 ± 11.3	57.1 ± 8.8	64.4 ± 10.5	–	–	–	–	–	–	–	–	–	–	–	–	–	–	–	–	–	–
CCOC(=O)c1ccc(N2CCN(C(=O)N(CC)CC)CC2)cc1 [drawing 20]	63.7 ± 12.0	60.4 ± 9.2	66.9 ± 11.1	–	–	–	–	–	–	–	–	–	–	–	–	–	–	–	–	–	–
CCN(CC)C(=O)N1CCN(c2ccc(C(=O)O)cc2)CC1 [drawing 21]	65.0 ± 10.2	64.6 ± 7.9	70.8 ± 10.7	–	–	–	–	–	–	–	–	–	–	–	–	–	–	–	–	–	–
CCN(CC)C(=O)N1CCN(c2ccc(C(C)=O)cc2)CC1 [drawing 22]	61.4 ± 10.4	62.2 ± 8.8	68.4 ± 12.0	–	–	–	–	–	–	–	–	–	–	–	–	–	–	–	–	–	–
CCN(CC)C(=O)N1CCN(c2ccccc2)CC1 [drawing 29]	–	–	–	7.8	6.6	3.7	0.9	0	6	6	6	6	6	6	–	–	–	–	–	–	–
CCN(CC)C(=O)N1CCN(c2ccc(Cl)cc2)CC1 [drawing 30]	–	–	–	7.1	5.8	3.0	0	0	6	6	6	6	6	6	–	–	–	–	–	–	–
CCN(CC)C(=O)N1CCN(c2ccc(OC)cc2)CC1 [drawing 31]	–	–	–	8.1	4.6	5.0	2.2	0.6	6	6	6	6	6	6	–	–	–	–	–	–	–
CCOC(=O)c1ccc(N2CCN(C(=O)N(CC)CC)CC2)cc1 [drawing 32]	–	–	–	9.2	7.4	4.8	3.2	0	6	6	6	6	6	6	–	–	–	–	–	–	–
CCN(CC)C(=O)N1CCN(c2ccc(C(=O)O)cc2)CC1 [drawing 33]	–	–	–	6.8	3.5	4.4	2.2	0	6	6	6	6	6	6	–	–	–	–	–	–	–
CCN(CC)C(=O)N1CCN(c2ccc(C(C)=O)cc2)CC1 [drawing 34]	–	–	–	8.4	4.7	5.1	6.6	0	6	6	6	6	6	6	–	–	–	–	–	–	–
CCN(CC)C(=O)N1CCN(c2ccccc2)CC1 [drawing 35]	–	–	–	–	–	–	–	–	–	–	–	–	–	–	2.9	4.1	4.8	1.0	0	6	N: number of living mice, 2 weeks (Sarcoma 180 [2]): 6; N: number of living mice, 4 weeks (Sarcoma 180 [2]): 6; N: number of living mice, 6 weeks (Sarcoma 180 [2]): 6; N: number of living mice, 8 weeks (Sarcoma 180 [2]): 6; N: number of living mice, 10 weeks (Sarcoma 180 [2]): 6
CCN(CC)C(=O)N1CCN(c2ccc(Cl)cc2)CC1 [drawing 36]	–	–	–	–	–	–	–	–	–	–	–	–	–	–	2.3	2.1	3.8	0	0	6	N: number of living mice, 2 weeks (Sarcoma 180 [2]): 6; N: number of living mice, 4 weeks (Sarcoma 180 [2]): 6; N: number of living mice, 6 weeks (Sarcoma 180 [2]): 6; N: number of living mice, 8 weeks (Sarcoma 180 [2]): 6; N: number of living mice, 10 weeks (Sarcoma 180 [2]): 6
CCN(CC)C(=O)N1CCN(c2ccc(OC)cc2)CC1 [drawing 37]	–	–	–	–	–	–	–	–	–	–	–	–	–	–	3.0	1.0	2.2	5.3	4.0	6	N: number of living mice, 2 weeks (Sarcoma 180 [2]): 6; N: number of living mice, 4 weeks (Sarcoma 180 [2]): 6; N: number of living mice, 6 weeks (Sarcoma 180 [2]): 6; N: number of living mice, 8 weeks (Sarcoma 180 [2]): 6; N: number of living mice, 10 weeks (Sarcoma 180 [2]): 6
CCOC(=O)c1ccc(N2CCN(C(=O)N(CC)CC)CC2)cc1 [drawing 38]	–	–	–	–	–	–	–	–	–	–	–	–	–	–	3.2	3.4	3.8	2.5	0.8	6	N: number of living mice, 2 weeks (Sarcoma 180 [2]): 6; N: number of living mice, 4 weeks (Sarcoma 180 [2]): 6; N: number of living mice, 6 weeks (Sarcoma 180 [2]): 6; N: number of living mice, 8 weeks (Sarcoma 180 [2]): 6; N: number of living mice, 10 weeks (Sarcoma 180 [2]): 6
CCN(CC)C(=O)N1CCN(c2ccc(C(=O)O)cc2)CC1 [drawing 39]	–	–	–	–	–	–	–	–	–	–	–	–	–	–	2.1	4.4	4.8	3.9	0	6	N: number of living mice, 2 weeks (Sarcoma 180 [2]): 6; N: number of living mice, 4 weeks (Sarcoma 180 [2]): 6; N: number of living mice, 6 weeks (Sarcoma 180 [2]): 6; N: number of living mice, 8 weeks (Sarcoma 180 [2]): 6; N: number of living mice, 10 weeks (Sarcoma 180 [2]): 6
CCN(CC)C(=O)N1CCN(c2ccc(C(C)=O)cc2)CC1 [drawing 40]	–	–	–	–	–	–	–	–	–	–	–	–	–	–	4.1	7.7	8.5	4.3	0	6	N: number of living mice, 2 weeks (Sarcoma 180 [2]): 6; N: number of living mice, 4 weeks (Sarcoma 180 [2]): 6; N: number of living mice, 6 weeks (Sarcoma 180 [2]): 6; N: number of living mice, 8 weeks (Sarcoma 180 [2]): 6; N: number of living mice, 10 weeks (Sarcoma 180 [2]): 6
